Assay results: US8999974B2, “Acyl piperazine derivatives as TTX-S blockers” (Raqualia Pharma Inc., priority 2010, dated 2015)

Molecular target: T1, human NaV1.3 (Homo sapiens, UniProt Q9NY46)
T1 construct: expressed in transfected cells; host or cells: HEK293
Experiment: FRET assay (EFS, FDSS) on HEK293 cells expressing human NaV1.3 channels
Assay type: cell-based
Details: FRET assay, HEK293 cells expressing human NaV1.3; read-out: IC50 against Nav1.3
Procedure: This screen was used to determine the effects of compounds on human NaV1.3, human Nav1.7, and human Nav1.5 channels, utilising electrical field stimulation (EFS) system in 96-well plate format on FDSS (Hamamatsu Photonics) platform. The change of membrane potential was monitored with FRET dye pair, oxonol (DiSBAC2(3)) and coumarin (CC2-DMPE).
Each HEK293 cells expressing human NaV1.3 channels and HEK293 cells expressing human NaV1.5 channels were grown in T225 flasks, in a 5% CO2 humidified incubator to about 80% confluence. Media composition consisted of Dulbecco's Modified Eagle Medium (high glucose), 10% FCS, 100 units/ml Penicillin, 100 microgram/ml Streptomycin and 500 microgram/ml Geneticine.
Protocol: • Seeded each cell lines (1×10^5 cells/well) into poly-D-lysine coated 96-well plates prior to experimentation. • Incubated at 37° C. in 5% CO2 for 24 hours. • Washed each well with assay buffer (140 mM NaCl, 4.5 mM KCl, 10 mM D-Glucose, 2 mM CaCl2, 1 mM MgCl2, 10 mM HEPES, pH 7.4 adjusted with NaOH) twice. • Added 1st loading solution containing 10 microM CC2-DMPE and 0.06% Pluronic F-127 in assay buffer. • Incubated the plate at room temperature in dark for 1 hour. • Removed 1st loading solution and added 2nd loading solution containing 15 microM DiSBAC2(3), 0.555 mM VABSC-1 and 0.004% Pluronic F-127 in assay buffer. • Placed the plate under the dark at room temperature for 25 minutes. • Added compound solutions into the assay plate. • Set the assay plate in FDSS and placed an EFS device on the plate. • Measured EFS-induced fluorescent response by FDSS.
The data were analyzed and reported as normalized ratios of intensities measured at […]. The process of calculating these ratios was performed as follows:
[formula] This analysis was performed using a computerized specific program designed for FDSS generated data. Fluorescence ratio values were plotted using XLfit to determine an IC50 value for each compound.

T1 sequence (Q9NY46 whole entry): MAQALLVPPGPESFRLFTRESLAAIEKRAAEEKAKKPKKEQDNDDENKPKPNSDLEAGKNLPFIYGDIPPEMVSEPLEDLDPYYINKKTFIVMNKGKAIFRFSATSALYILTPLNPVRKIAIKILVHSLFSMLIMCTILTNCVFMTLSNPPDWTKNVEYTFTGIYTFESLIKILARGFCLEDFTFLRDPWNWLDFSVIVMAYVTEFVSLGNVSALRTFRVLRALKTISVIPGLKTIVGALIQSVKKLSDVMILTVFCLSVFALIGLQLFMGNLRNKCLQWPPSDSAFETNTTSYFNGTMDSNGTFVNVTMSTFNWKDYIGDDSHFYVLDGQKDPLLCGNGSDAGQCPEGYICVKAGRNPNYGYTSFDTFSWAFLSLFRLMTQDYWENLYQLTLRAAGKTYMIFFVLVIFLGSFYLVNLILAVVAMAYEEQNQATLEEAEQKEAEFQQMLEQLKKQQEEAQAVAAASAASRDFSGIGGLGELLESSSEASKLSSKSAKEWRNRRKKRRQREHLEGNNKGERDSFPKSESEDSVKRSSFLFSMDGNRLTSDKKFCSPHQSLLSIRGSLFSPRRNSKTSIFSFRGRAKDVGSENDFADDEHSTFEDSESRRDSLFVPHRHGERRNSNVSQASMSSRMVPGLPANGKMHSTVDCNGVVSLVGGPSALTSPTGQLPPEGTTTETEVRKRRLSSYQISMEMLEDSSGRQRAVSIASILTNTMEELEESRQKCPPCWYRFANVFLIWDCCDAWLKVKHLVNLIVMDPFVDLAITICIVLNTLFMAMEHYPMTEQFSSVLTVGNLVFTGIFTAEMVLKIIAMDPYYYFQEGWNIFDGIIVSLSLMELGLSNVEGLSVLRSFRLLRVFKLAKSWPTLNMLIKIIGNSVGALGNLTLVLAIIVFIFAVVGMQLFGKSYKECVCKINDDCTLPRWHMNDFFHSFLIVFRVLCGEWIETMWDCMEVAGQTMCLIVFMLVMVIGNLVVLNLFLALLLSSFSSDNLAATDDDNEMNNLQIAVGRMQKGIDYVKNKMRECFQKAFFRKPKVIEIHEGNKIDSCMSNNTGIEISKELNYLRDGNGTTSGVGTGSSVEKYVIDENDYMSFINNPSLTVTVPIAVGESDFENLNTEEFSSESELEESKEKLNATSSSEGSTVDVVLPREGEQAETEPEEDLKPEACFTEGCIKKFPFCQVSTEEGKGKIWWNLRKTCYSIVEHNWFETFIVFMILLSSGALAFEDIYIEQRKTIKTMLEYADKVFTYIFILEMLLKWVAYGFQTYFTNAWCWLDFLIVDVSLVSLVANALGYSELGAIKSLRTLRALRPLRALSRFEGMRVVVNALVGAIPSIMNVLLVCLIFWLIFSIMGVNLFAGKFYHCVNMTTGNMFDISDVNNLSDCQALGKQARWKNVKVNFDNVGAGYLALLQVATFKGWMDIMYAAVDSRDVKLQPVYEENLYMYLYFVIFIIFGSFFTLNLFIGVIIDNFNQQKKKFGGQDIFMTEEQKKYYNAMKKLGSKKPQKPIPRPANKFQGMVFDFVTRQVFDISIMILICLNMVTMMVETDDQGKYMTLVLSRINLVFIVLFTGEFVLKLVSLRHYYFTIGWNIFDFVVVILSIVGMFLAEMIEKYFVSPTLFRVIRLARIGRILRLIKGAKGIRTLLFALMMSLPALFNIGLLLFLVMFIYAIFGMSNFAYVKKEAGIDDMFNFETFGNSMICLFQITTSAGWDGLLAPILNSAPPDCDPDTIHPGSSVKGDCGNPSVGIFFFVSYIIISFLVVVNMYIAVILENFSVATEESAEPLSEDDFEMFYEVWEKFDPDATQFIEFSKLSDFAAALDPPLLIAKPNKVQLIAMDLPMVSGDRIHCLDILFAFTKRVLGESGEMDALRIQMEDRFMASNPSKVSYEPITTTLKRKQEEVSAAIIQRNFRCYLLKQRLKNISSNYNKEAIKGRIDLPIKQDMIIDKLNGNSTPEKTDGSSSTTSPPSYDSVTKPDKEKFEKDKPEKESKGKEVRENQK

Row | Structure (SMILES) | IC50 [µM]
1 | CC(C)COc1cc(N2CCN(C(=O)Cc3ccc(F)cc3)CC2)ncn1 [Example 119, 2-(4-fluorophenyl)-1-(4-(6-isobutoxypyrimidin-4-yl)piperazin-1-yl)ethanone] | < 3
2 | CC(C)COc1cc(N2CCN(C(=O)CS(=O)(=O)c3ccc(Cl)cc3)CC2)ncn1 [Example 121, 2-((4-chlorophenyl)sulfonyl)-1-(4-(6-isobutoxypyrimidin-4-yl)piperazin-1-yl)ethanone] | < 3
3 | CC(C)COc1cc(N2CCN(C(=O)COc3ccc4cccnc4c3)CC2)ncn1 [Example 127, 1-(4-(6-isobutoxypyrimidin-4-yl)piperazin-1-yl)-2-(quinolin-7-yloxy)ethanone] | < 3
4 | CC(C)COc1cc(N2CCN(C(=O)COc3cccc4ccncc34)CC2)ncn1 [Example 128, 1-(4-(6-isobutoxypyrimidin-4-yl)piperazin-1-yl)-2-(isoquinolin-8-yloxy)ethanone] | < 3
5 | CC(C)COc1cc(N2CCN(C(=O)c3cc(-c4ccccc4)nn3C)CC2)ncn1 [Example 134, (4-(6-isobutoxpyrimidin-4-yl)piperazin-1-yl)(1-methyl-3-phenyl-1H-pyrazol-5-yl)methanone] | < 3
6 | Cc1c(C(=O)N2CCN(c3cc(OCC(C)C)ncn3)CC2)cnn1-c1ccccc1 [Example 135] | < 3
7 | Cc1c(C(=O)N2CCN(c3cc(OCC(C)C)ncn3)CC2)nnn1-c1ccccc1 [Example 136, (4-(6-isobutoxpyrimidin-4-yl)piperazin-1-yl)(5-methyl-1-phenyl-1H-1,2,3-triazol-4-yl)methanone] | < 3
8 | O=C(CCOc1ccc(F)cc1)N1CCN(c2cc(OC3CCC3)ncn2)CC1 [Example 140, 1-(4-(6-cylcobutoxypyrimidin-4-yl)piperazin-1-yl)-3-(4-fluorophenoxy)propan-1-one] | < 3
9 | CC(C)COc1cc(N2CCN(C(=O)COc3cncc(Cl)c3)CC2)ncn1 [Example 144, 2-((5-chloropyridin-3-yl)oxy)-1-(4-(6-isobutoxypyrimidin-4-yl)piperazin-1-yl)ethanone] | < 3
10 | Cc1c(C(=O)N2CCN(c3cc(OCC(F)(F)F)ncn3)CC2)cnn1-c1ccccc1 [Example 148, (5-methyl-1-phenyl-1H-pyrazol-4-yl)(4-(6-(2,2,2-trifluoroethoxy)pyrimidin-4-yl)piperazin-1-yl)methanone] | < 3
11 | CC(C)COc1cc(N2CCN(C(=O)[C@@H](C)Oc3ccc(F)cc3)CC2)ncn1 [Example 152, (R)-2-(4-fluorophenoxy)-1-(4-(6-isobutoxypyrimidin-4-yl)piperazin-1-yl)propan-1-one] | < 3
12 | O=C(COc1cccc(F)c1)N1CCN(c2cc(OCC(F)(F)F)ncn2)CC1 [Example 155, 2-(3-fluorophenoxy)-1-(4-(6-(2,2,2-trifluoroethoxy)pyrimidin-4-yl)piperazin-1-yl)ethanone] | < 3
13 | O=C(CN1CCc2ccccc2C1=O)N1CCN(c2cc(OCC(F)(F)F)ncn2)CC1 [Example 157, 2-(2-oxo-2-(4-(6-(2,2,2-trifluoroethoxy)pyrimidin-4-yl)piperazin-1-yl)ethyl)-3,4-dihydroisoquinolin-1(2H)-one] | < 3
14 | CC(C)Oc1cc(N2CCN(C(=O)c3cc(-c4ccccc4)nn3C)CC2)ncn1 [Example 164, (4-(6-isopropoxypyrimidin-4-yl)piperazin-1-yl)(1-methyl-3-phenyl-1H-pyrazol-5-yl)methanone] | < 3
15 | CC(C)COc1cc(N2CCN(C(=O)c3cnn(Cc4ccccc4)c3)CC2)ncn1 [Example 171, (1-benzyl-1H-pyrazol-4-yl)(4-(6-isobutoxypyrimidin-4-yl)piperazin-1-yl)methanone] | < 3
16 | Cc1nn(-c2ccccc2)nc1C(=O)N1CCN(c2cc(OCC(C)C)ncn2)CC1 [Example 182, (4-(6-isobutoxypyrimidin-4-yl)piperazin-1-yl)(5-methyl-2-phenyl-2H-1,2,3-triazol-4-yl)methanone] | < 3
17 | COc1ccccc1-n1cc(C(=O)N2CCN(c3cc(OCC(C)C)ncn3)CC2)cn1 [Example 183, (4-(6-isobutoxypyrimidin-4-yl)piperazin-1-yl)(1-(2-methoxyphenyl)-1H-pyrazol-4-yl)methanone] | < 3

Row | Structure (SMILES) | IC50 [µM]
18 | CC(C)COc1cc(N2CCN(C(=O)c3cnn(-c4ccccc4)c3N)CC2)ncn1 [Example 184, (5-amino-1-phenyl-1H-pyrazol-4-yl)(4-(6-isobutoxypyrimidin-4-yl)piperazin-1-yl)methanone] | < 3
19 | CC(C)COc1cc(N2CCN(C(=O)c3cc(-c4ccccc4)ncn3)CC2)ncn1 [Example 185, (4-(6-isobutoxypyrimidin-4-yl)piperazin-1-yl)(6-phenylpyrimidin-4-yl)methanone] | < 3
20 | CC(C)COc1cc(N2CCN(C(=O)c3cc(-c4cccnc4)nn3C)CC2)ncn1 [Example 189, (4-(6-isobutoxypyrimidin-4-yl)piperazin-1-yl)(1-methyl-3-(pyridin-3-yl)-1H-pyrazol-5-yl)methanone] | < 3
21 | CC(C)COc1cc(N2CCN(C(=O)c3csc(-c4cccnc4)n3)CC2)ncn1 [Example 190, (4-(6-isobutoxypyrimidin-4-yl)piperazin-1-yl)(2-(pyridin-3-yl)thiazol-4-yl)methanone] | < 3
22 | CC(C)COc1cc(N2CCN(C(=O)c3csc(-c4ccccn4)n3)CC2)ncn1 [Example 191, (4-(6-isobutoxypyrimidin-4-yl)piperazin-1-yl)(2-(pyridin-2-yl)thiazol-4-yl)methanone] | < 3
23 | CC(C)Oc1cc(N2CCN(C(=O)c3csc(-c4ccccn4)n3)CC2)ncn1 [Example 193, (4-(6-isopropoxypyrimidin-4-yl)piperazin-1-yl)(2-(pyridin-2-yl)thiazol-4-yl)methanone] | < 3
24 | Cc1c(C(=O)N2CCN(c3cc(OCC(C)C)ncn3)CC2)nnn1-c1ccc(F)cc1 [Example 202, (1-(4-fluorophenyl)-5-methyl-1H-1,2,3-triazol-4-yl)(4-(6-isobutoxypyrimidin-4-yl)piperazin-1-yl)methanone] | < 3
25 | Cc1c(C(=O)N2CCN(c3cc(OC(C)C)ncn3)CC2)nnn1-c1ccc(F)cc1 [Example 203, (1-(4-fluorophenyl)-5-methyl-1H-1,2,3-triazol-4-yl)(4-(6-isopropoxypyrimidin-4-yl)piperazin-1-yl)methanone] | < 3
26 | Cc1c(C(=O)N2CCN(c3cc(OC4CCC4)ncn3)CC2)nnn1-c1ccc(F)cc1 [Example 204, (4-(6-cyclobutoxypyrimidin-4-yl)piperazin-1-yl)(1-(4-fluorophenyl)-5-methyl-1H-1,2,3-triazol-4-yl)methanone] | < 3
27 | Cc1c(C(=O)N2CCN(c3cc(OCC(F)(F)F)ncn3)CC2)nnn1-c1ccc(F)cc1 [Example 205, (1-(4-fluorophenyl)-5-methyl-1H-1,2,3-triazol-4-yl)(4-(6-(2,2,2-trifluoroethoxy)pyrimidin-4-yl)piperazin-1-yl)methanone] | < 3
28 | CC(C)COc1cc(N2CCN(C(=O)c3cn(-c4ccccc4)nn3)CC2)ncn1 [Example 206, (4-(6-isobutoxypyrimidin-4-yl)piperazin-1-yl)(1-phenhyl-1H-1,2,3-triazol-4-yl)methanone] | < 3
29 | CC(C)COc1cc(N2CCN(C(=O)c3nn(C)c4ccc(F)cc34)CC2)ncn1 [Example 209, (5-fluoro-1-methyl-1H-indazol-3-yl)(4-(6-isobutoxypyrimidin-4-yl)piperazin-1-yl)methanone] | < 3
30 | CC(C)Oc1cc(N2CCN(C(=O)c3nn(C)c4ccc(F)cc34)CC2)ncn1 [Example 210, (5-fluoro-1-methyl-1H-indazol-3-yl)(4-(6-isopropoxypyrimidin-4-yl)piperazin-1-yl)methanone] | < 3
31 | CC(C)COc1cc(N2CCN(C(=O)c3ccc(-n4cccn4)nc3)CC2)ncn1 [Example 214, (6-(1H-pyrazol-1-yl)pyridin-3-yl)(4-(6-isobutoxypyrimidin-4-yl)piperazin-1-yl)methanone] | < 3
32 | CC(C)COc1cc(N2CCN(C(=O)c3cnn(-c4ccccc4)c3)CC2)ncn1 [Example 215, (4-(6-isobutoxypyrimidin-4-yl)piperazin-1-yl)(1-phenyl-1H-pyrazol-4-yl)methanone] | < 3
33 | CCn1nc(C(F)(F)F)cc1C(=O)N1CCN(c2cc(OCC(C)C)ncn2)CC1 [Example 217, (1-ethyl-3-(trifluoromethyl)-1H-pyrazol-5-yl)(4-(6-isobutoxypyrimidin-4-yl)piperazin-1-yl)methanone] | < 3
34 | Cc1c(C(=O)N2CCN(c3cc(OC4CCC4)ncn3)CC2)nnn1-c1ccccc1 [Example 219, (4-(6-cyclobutoxypyrimidin-4-yl)piperazin-1-yl)(5-methyl-1-phenyl-1H-1,2,3-triazol-4-yl)methanone] | < 3
